From article PMC6314830 (Science Advances, 2019)

Test system: mouse skin
Assay: Topical application to uninfected mouse skin
Format: in vivo
Conditions: repeated daily topical treatments of the skin

**Q.** Which “Local or systemic adverse effects” value does the source give for CC[C@H](C)[C@H](N)C(=O)N[C@@H](CC(N)=O)C(=O)N[C@@H](CC(C)C)C(=O)N[C@@H](CCCCN)C(=O)N[C@@H](C)C(=O)N[C@@H](CC(C)C)C(=O)N[C@@H](C)C(=O)N[C@@H](C)C(=O)N[C@@H](CC(C)C)C(=O)N[C@@H](C)C(=O)N[C@@H](CCCCN)C(=O)N[C@@H](CCCCN)C(=O)N[C@H](C(=O)N[C@@H](CC(C)C)C(=O)O)[C@@H](C)CC [Mastoparan] here?
**A.** did not observe any local or systemic adverse effects
